Experimental data: patent US11447482B1, “Imidazopyridine and oxazolopyridine derivatives and analogs thereof, methods of preparation thereof, methods of HIF-2A pathway inhibition, and induction of ferroptosis” (KUDA Therapeutics, Inc., priority 2019, dated 2022)
Values joined by “and” are separate entries in the source; they are usually repeats but may differ in a detail not shown here. Equal entries are not always repeated. Where two headings read alike, the source gives them in different places.

What was measured:
[1] = system: HIF-2α transcriptional activity; assay: Hypoxia-responsive element-driven luciferase (HRE-Luc) assay; assay type: cell-based, human; conditions: 786-0 CCRCC cells stably expressing HRE-Luc, 24 hours treatment
Experimental: (§1) Screens for inhibitory activity of compounds described herein were performed using 786-0 CCRCC cells that stably express HRE-Luc: 5 copies of the hypoxia-responsive element (HRE) fused to the pGL3 luciferase reporter (Promega Corp, Madison Wis.). 786-0 cells are pVHL deficient and thus constitutively express HIF-2α independently of cellular oxygen tension (Maxwell, Wiesener et al. 1999). Since 786-0 cells lack HIF-1α, HRE-driven luciferase activity is primarily HIF-2α driven, and has been previously validated (Koh, Lemos et al. 2011). Cells were maintained at log phase growth in Dulbecco's […] (DMEM) with 10% FBS in a humidified incubator at 37° C. with 5% CO2. For screening assays, cells were seeded at a density of 4,000 cells in 50 μl of complete media/well in quadruplicate wells/point in a 96-well plate. 24 hours later, 50 μl of a 2× concentration of test compound was added to each well. Compounds were diluted from a 5-10 mM stock in DMSO and final concentrations of DMSO in each well in controls and treated wells were kept constant at ≤0.6% DMSO. After 24 hours' treatment, luciferase activity was measured using the Steady-Glo Luciferase assay system (Promega Corp) according to the manufacturer's protocol. Cell viability was measured in quadruplicate parallel wells using resazurin as recommended by the manufacturer (R&D systems, Minneapolis, Minn.). Data for luciferase and resazurin were normalized to DMSO treated controls (defining 100%) and wells containing assay reagent but no cells (defining 0%), and graphed using the log inhibitor versus normalized response option in Prism7 Graphpad software. Representative data determined using Steady-Glo luciferase and resazurin are shown in FIGS. 1A and 1B respectively, with error bars showing standard error of the mean (SEM).

IRP2 = assay: Western blot of treated 786-0 cells: IRP2; assay type: cell-based, human; conditions: 786-0 CCRCC cells, 24 hours
Experimental: (§2) Western blots were performed to determine the effects of the compounds on levels of HIF-2α and other relevant proteins. 786-0 (pVHL deficient clear cell kidney cancer cells) were purchased from ATCC were plated at 1×10E5 cells/well in 2 ml DMEM with 10% FBS/well in 6-well tissue culture plates. Cells were allowed to adhere overnight in a humidified incubator at 37° C. with 5% CO2, after which the appropriate concentrations of compounds in DMSO were added. DMSO concentrations were kept constant in all wells. After 24 hour's exposure to the compounds, cells were lysed and subjected to western blotting according to standard protocols (Polek, Talpaz et al. 2003). Antibodies for HIF-2α and Glyceraldehyde 3-Phosphate Dehydrogenase (GAPDH) were purchased from Cell Signaling Technology (Danvers, Mass.), whereas antibodies to iron responsive element binding protein 2 (IRP2) and Glutathione Peroxidase 4 (GPX4) were from Santa Cruz Biotechnology (Dallas, Tex.) and R&D Systems, Inc (Minneapolis, Minn.). Representative data in FIG. 3 show a dose-dependent effect of compounds in decreasing HIF-2α. Compounds also impact cellular iron sensing given by increased IRP2, which taken together indicate that cells sense decreased amounts of available iron. Representative data shown in FIG. 5 Part C show a dose dependent effect of the compounds on GPX4, which may indicate decreased resistance to ferroptosis.

recombinant ISCA2 = molecular target: T1, recombinant ISCA2 (Homo sapiens, UniProt Q86U28); assay: Thermal shift assay (SYPRO Orange); assay type: binding
T1 construct: His6 (N); made in house
T1 sequence (Q86U28 9-154): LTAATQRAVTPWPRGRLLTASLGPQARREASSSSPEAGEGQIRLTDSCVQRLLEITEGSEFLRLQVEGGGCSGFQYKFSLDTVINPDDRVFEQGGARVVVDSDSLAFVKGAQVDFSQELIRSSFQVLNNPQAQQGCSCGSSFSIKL
Experimental: Thermal shift assays were performed by monitoring the change in protein melting temperature (Tm) in the absence or presence of test compounds, using the hydrophobic protein binding dye, SYPRO Orange (S6650, Thermo Fisher Scientific, Waltham, Mass.), measured using the LightCycler 480 (Roche Life Sciences, Indianapolis, Ind.) according to the manufacturer's protocol. Recombinant ISCA2 was produced by expressing amino acid residues 9-154 of ISCA2 (ISCA2 lacking its mitochondrial localization sequence) in the pET28 vector containing an N-terminal His6 tag in Rosetta (DE3) competent cells (Novagen, Millipore Sigma). ISCA2 production was induced by treating ISCA2 transformed log phase cells with 0.25 mM IPTG for 4 hours at 18° C. ISCA2 was purified using Ni^2+ affinity purification according to standard protocols and eluted in 50 mM Tris-Cl pH7.4, 150 mM NaCl, 5 mM DTT. Thermal shift assays were performed in 384-well plates using 1 μl of a 10× concentration of SYPRO Orange, 8 μl of ISCA2 (4 μg protein) and 1 μl of 1-2 mM stock of test compound per well. The LightCycler was used according to the following setup: LightCycler 480 Instrument Temperature Setup: First target of 20° C., with a Hold of 15 seconds; second target of 95° C., with Acquisition Mode of Continuous, and 10 acquisitions per degree C.; and third target of 20° C., with a Hold of 15 seconds. Tms were determined using Roche Protein Melting Analysis Software. Representative data are shown in FIGS. 7 and 8 using KD001 at 200 μM final concentration and KD025 at 100 μM final concentration respectively. Part A in these figures show the changes in fluorescence with increasing temperature in control (grey traces), or treated (black traces) wells. Part B show the ratio of changes in fluorescence (dF) with changes in temperature (dT), given by dF/dT, the peak of which indicates the melting temperature of ISCA2 under these assay conditions. In these examples, for KD001 in FIG. 7, the average Tm readings for control wells was 53.21±0.36° C. (replicate readings were 53.92, 52.83, 52.90), whereas Tm readings for KD001-treated wells were 55.63±0.26° C. (replicate readings were 55.10, 55.92, 55.96). Thus, treatment with KD001 results in a change in melting temperature of ISCA2 (dTm) of 2.41±0.44° C., with a Student's t-test p-value of 0.005. For KD025 in FIG. 8, the average Tm readings for control wells was 55.02±0.2° C. (replicate readings were 55.42, 54.83, 54.81), whereas Tm readings for KD025-treated wells were 56.3±0.02° C. (replicate readings were 56.33, 56.3, 56.27). Thus, treatment with KD025 results in a change in melting temperature of ISCA2 (dTm) of […], with a Student's t-test p-value of 0.003.

HIF-2α = assay: Western blot of treated 786-0 cells: HIF-2α; assay type: cell-based, human; conditions: 786-0 CCRCC cells, 24 hours
Experimental: as §2

[2] = system: CMV-driven luciferase in 786-0 cells; assay: CMV-Luciferase counter-screen (constitutive luciferase); assay type: cell-based, human; conditions: 786-0 CMV versus 786-0 HRE cells, data of FIG. 2
Experimental: Since it is possible that non-specific inhibitors of luciferase activity and/or translation may produce false-positives in our HRE-luciferase screens, counter-screens were performed using 786-0 cells that stably express a constitutively expressed luciferase construct. 786-0 cells stably expressing CMV-driven luciferase were generated using the pGL4.50 (luc2/CMV/Hygro) vector (Promega Corp) according to the manufacturers' protocol. 786-0 HRE and 786-0 CMV were seeded in 96-well plates and were screened according to the HRE-Luc assay protocol described in Example 2. Luciferase activity following compound treatment was determined using Steady Glo luciferase. Representative data are shown in FIG. 2, wherein A, B and C refer to treatments with KD02, KD007 and KD021 respectively. Filled circles indicate results from 786-0 HRE cells, whereas empty squares indicate results from 786-0 CMV cells.

786-0 CCRCC cells [3] = assay: Resazurin cell viability assay, with or without deferoxamine; assay type: cell-based, human; conditions: 24 hours; for ratio of resazurin IC50 to HRE-Luc IC50: 786-0 HRE-Luc cells, data of FIG. 1; for IC50: 786-0 CCRCC cells, resazurin
Experimental: as §1
In view of the increased cellular iron concentrations induced by the compounds described herein, the involvement of iron in mediating cell death was determined. Cell viability assays were performed as described in Example 2 using resazurin as a cell viability readout, and performed in the absence or presence of 100 μM of the iron chelator, deferoxamine (D9533, MilliporeSigma, St Louis, Mo.). […] The data support an iron-dependent mechanism of cell death, or feroptosis.

786-0 CCRCC cells [4] = assay: ICP-MS of cellular iron, zinc and copper; assay type: cell-based, human; conditions: 786-0 cells, 24 hours, 1.5 μM KD002 or KD021, 2.5 μM KD025HCl, versus DMSO
Experimental: These studies were performed to determine the content of iron and other transition metals in cells after exposure the compounds described herein. 786-0 cells were seeded at 1.5 million cells/flask in T75 cm^2 flasks in DMEM+10% FBS, and allowed to adhere overnight. Cells were then treated with indicated concentrations of compounds in DMSO or DMSO alone (vehicle) for a further 24 hours, after which cells were detached by trypsinization, counted, washed twice in PBS and pelleted. Experiments were performed using three replicate T75 cm^2 flasks per condition. A 5:1 mixture of nitric acid (OPTIMA Grade, 70%, Fisher Scientific) and ultrapure hydrogen peroxide (ULTREX II, 30%, Fisher Scientific) was added to cell pellets. This mixture was allowed to digest overnight, heated until dry, and resuspended in 2% nitric acid for analysis using an Agilent 7900 ICP-MS (Agilent Technologies, Santa Clara, Calif.). Calibration standard solutions for determination of Fe were prepared from Agilent multi-element calibration standard-2A. An Agilent Environmental Calibration Standard was used as an independent control. PBS-only control digestions were used to measure background. Metal readings were normalized to cell number. Data obtained from these studies for three replicate readings (with SEM) are shown in FIG. 4, which show an increase in cellular iron (Fe) content after treatment with indicated compounds.

Row | IC50 ([1]; Homo sapiens) [µM] | ratio of resazurin IC50 to HRE-Luc IC50 (786-0 CCRCC cells [3]) | Compound | IRP2 protein relative to GAPDH (western blot) (IRP2) | HIF-2α protein relative to GAPDH (western blot) (HIF-2α) | ratio of CMV-Luc IC50 to HRE-Luc IC50 [2] | cellular copper (Cu) content (ICP-MS) (786-0 CCRCC cells [4]) | cellular iron (Fe) content (ICP-MS) (786-0 CCRCC cells [4]) | cellular zinc (Zn) content (ICP-MS) (786-0 CCRCC cells [4]) | further results
1 | 3.21 |  | COc1cccc2sc(Nc3nnc(-c4ccc(F)cc4)o3)nc12 [KD001, 5-(4-fluorophenyl)-N-(4-methoxybenzo[d]thiazol-2-yl)-1,3,4-oxadiazol-2-amine] | increases | decreases |  |  |  |  | Tm of ISCA2 in treated wells, replicate readings (recombinant ISCA2; 200 μM compound): 55.10 °C and 55.92 °C and 55.96 °C; change in melting temperature of ISCA2 (dTm) (recombinant ISCA2; 200 μM compound, p-value 0.005): 2.41±0.44 °C; ΔTm at 200 µM (recombinant ISCA2; 200 μM compound, p-value 0.005, read-out: change in melting temperature of ISCA2 (dTm)): 2.41 ± 0.44 °C; Tm of ISCA2 in treated wells (average) (recombinant ISCA2; 200 μM compound, control wells 53.21±0.36): 55.63±0.26 °C
2 | 1.56 | 39.05 | COc1nccc2[nH]c(Nc3nnc(-c4ccc(F)cc4)o3)nc12 [KD002, 5-(4-Fluorophenyl)-N-(4-methoxy-1H-imidazo[4,5-c]pyridin-2-yl)-1,3,4-oxadiazol-2-amine] | increases | decreases | 7.9 | increases | increases | increases | 
3 | 3.16 | 3.2 | Fc1ccc(-c2nnc(Nc3nc4ncccc4o3)o2)cc1 [KD007, N-(5-(4-Fluorophenyl)-1,3,4-oxadiazol-2-yl)oxazolo[4,5-b]pyridin-2-amine] |  |  | 4.75 and 2.6 |  |  |  | 
4 |  | 2.75 | COc1ccc(-c2nnc(Nc3nc4c(OC)nccc4[nH]3)o2)cc1 [KD021, N-(4-methoxy-1H-imidazo[4,5-c]75yridine-2-yl)-5-(4-methoxyphenyl)-1,3,4-oxadiazol-2-amine] |  |  |  | increases | increases | increases | IC50 [1]: 1.4 µM; IC50 (786-0 CCRCC cells [3]; with 100 μM deferoxamine (DFO), read-out: cell viability IC50 in the presence of DFO): 83.6 µM; IC50 (786-0 CCRCC cells [3]; without DFO, read-out: cell viability IC50): 11.4 µM
5 | 1.13 |  | COc1ccc(-c2nnc(Nc3nc4c(OC)nccc4[nH]3)o2)cc1OC [KD025, N-(4-Methoxy-1H-imidazo[4,5-c]pyridin-2-yl)-5-(3,4-dimethoxyphenyl)-1,3,4-oxadiazol-2-amine] |  |  |  |  |  |  | Tm of ISCA2 in treated wells, replicate readings (recombinant ISCA2; 100 μM compound): 56.33 °C and 56.3 °C and 56.27 °C; change in melting temperature of ISCA2 (dTm) (recombinant ISCA2; 100 μM compound, p-value 0.003): 1.21±0.20 °C; ΔTm at 100 µM (recombinant ISCA2; 100 μM compound, p-value 0.003, read-out: change in melting temperature of ISCA2 (dTm)): 1.21 ± 0.2 °C; Tm of ISCA2 in treated wells (average) (recombinant ISCA2; 100 μM compound, control wells 55.02±0.2): 56.3±0.02 °C
